The values below come from US7091351B2, “Vanadium compounds for treating cancer” (Parker Hughes Institute, priority 1998, dated 2006).

Where two headings read alike, the source gives them in different places.

In the test the test system is NALM-6 leukemia cells. The test is described as follows: Mitochondrial transmembrane potential, DiIC1 staining, flow cytometry. It counts as cell-based, human. On the procedure: […] Mitochondrial membrane potential (ΔΨm) was measured using two dyes including a lipophollic cation 5,5′,6,6′-tetrachloro-1,1′,3,3′-tetraethlybenzimidazolylcarbocyanine iodide (JC-1; Molecular probes, Eugene, Oreg.) and a cyanine dye, 1,1′,3,3,3′,3′-hexamethylindodicarbocyanine iodide [DiIC1(5); Molecular probes] as earlier described (22). JC-1 can enter the cells, and selectively mitochondria, and has been used to assess ΔΨm in a variety of studies (23,24). JC-1 is a monomer at 527 nm after being excited at 490 nm; with polarization of ΔΨm, J-aggregates are formed that shift emission to 590 nm (23, 24). This can be detected on a flow cytometer by assessing the green signal (at 527 nm) and green-orange signal (at 590 nm) simultaneously, creating an index of the number of cells polarized and depolarized mitochondria. The treated and control cells were washed and plated in a 6-well plate at 1×10^6 cells in fresh medium. JC-1 was added at a concentration of 10 μg/ml, and cells were incubated for 10 min in the dark at room temp. Cells were then washed twice with ice-cold PBS and immediately analyzed using Becton Dickinson (San Jose, Calif.) Calibur flow cytometer. At least 2×10^3 cells were analyzed to determine the percentage of cells with polarized and depolarized mitochondria. DiIC1(5), a cyanine dye is amphioatheic and cationic that concentrate in energized mitochondria and has been used in a variety of studies to measure the mitochondrial membrane potential (25–27). NALM-6 cells were stained with DiIC1(5) at 40 nM concentration for 30 min in the dark as described for JC-1. The cells were analyzed using Vantage Becton Dickinson cell sorter equipped with HeNe laser with excitation at 635 nm and the fluorescence was collected at 666 nm.
(A flow cytometer gives signals particle by particle.)

By EC50 is commonly meant the concentration needed to bring the measured effect to its halfway point.

For “bis(4,7-dimethyl-1,10-phenanthroline)sulfatooxovanadium(IV) [Compound 29]”, the “fraction of DiIC1-negative cells with depolarized mitochondria” value (1 μM, 48 hours (vehicle 6.5%)) stood at 91.5%. In addition, the EC50 worked out at 3600 nM (24 hr treatment, read-out: average EC50 for depolarization of mitochondria (decreased DiIC1 staining), 24 hr); 300 nM (48 hr treatment, read-out: average EC50 for depolarization of mitochondria (decreased DiIC1 staining), 48 hr); 80 nM (72 hr treatment, read-out: average EC50 for depolarization of mitochondria (decreased DiIC1 staining), 72 hr).
